{"source": "patent US11066414B2", "about": "“Cot modulators and methods of use thereof” (Gilead Sciences, Inc., priority 2015, dated 2021)", "key": {"Human Cot": {"molecular_target": "Human Cot (Homo sapiens (Human), UniProt P41279)", "sequence (P41279 30-397)": "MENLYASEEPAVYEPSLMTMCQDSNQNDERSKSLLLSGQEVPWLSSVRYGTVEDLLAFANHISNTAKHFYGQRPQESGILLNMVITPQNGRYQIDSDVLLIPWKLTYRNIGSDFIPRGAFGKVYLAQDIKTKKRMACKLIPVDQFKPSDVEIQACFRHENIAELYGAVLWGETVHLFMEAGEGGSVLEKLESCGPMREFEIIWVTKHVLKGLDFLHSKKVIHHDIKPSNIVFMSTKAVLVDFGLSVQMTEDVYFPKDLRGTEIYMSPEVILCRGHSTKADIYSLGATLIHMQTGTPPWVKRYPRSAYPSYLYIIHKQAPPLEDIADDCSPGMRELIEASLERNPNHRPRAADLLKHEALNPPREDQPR", "assay": "High Throughput Cot Biochemical Assay"}, "TNFα": {"system": "TNFα", "assay": "Cot Monocyte TNFα Cell Based Assay"}, "[1]": {"conditions": "IC50 HTRF, Cot HTRF (TR-FRET) biochemical assay"}, "[2]": {"conditions": "Homo sapiens, Monocyte, read-out: EC50 TNF, LPS-stimulated human monocytes, TNFα"}, "[3]": {"conditions": "IC50 HTRF, Cot HTRF (TR-FRET KinEASE) biochemical assay, 400 μM ATP"}, "[4]": {"conditions": "Homo sapiens, Monocyte, read-out: EC50 TNF, LPS-stimulated human monocytes, TNFα TR-FRET"}}, "note": "Where two headings read alike, the source gives them in different places.", "data": [{"smiles": "Cc1nc(F)ccc1[C@H](Nc1cc(Cl)c2ncc(C#N)c(N[C@@H]3CCOC3(C)C)c2c1)c1cn(C2(C(F)F)CC2)nn1", "note": "[Example 515, 8-chloro-6-(((S)-(1-(1-(difluoromethyl)-cyclopropyl)-1H-1,2,3-triazol-4-yl)(6-fluoro-2-methylpyridin-3-yl)methyl)amino)-4-(((R)-2,2-dimethyltetrahydro-furan-3-yl)amino)quinoline-3-carbonitrile]", "values": [{"measurement": "IC50", "setting": "Human Cot; [1]", "value": 199, "unit": "nM"}, {"measurement": "EC50", "setting": "TNFα; [2]", "value": 1000, "unit": "nM"}]}, {"smiles": "Cc1nc(F)ccc1[C@H](Nc1cc(C#N)c2ncc(C#N)c(NCC(C)(C)C)c2c1)c1cn(C2(C#N)CCC2)nn1", "note": "[Example 491, (S)-6-(((1-(1-cyanocyclobutyl)-1H-1,2,3-triazol-4-yl)(6-fluoro-2-methylpyridin-3-yl)methyl)amino)-4-(neopentylamino)-quinoline-3,8-dicarbonitrile]", "values": [{"measurement": "IC50", "setting": "Human Cot; [1]", "value": 3, "unit": "nM"}, {"measurement": "EC50", "setting": "TNFα; [2]", "value": 40, "unit": "nM"}]}, {"smiles": "Cc1nc(F)ccc1[C@H](Nc1cc(Cl)c2ncc(C#N)c(NCC(C)(C)C)c2c1)c1cn(C2CC2)nn1", "note": "[Example 716, (S)-8-chloro-6-(((1-cyclopropyl-1H-1,2,3-triazol-4-yl)(6-fluoro-2-methylpyridin-3-yl)methyl)amino)-4-(neopentylamino)quinoline-3-carbonitrile]", "values": [{"measurement": "IC50", "setting": "Human Cot; [1]", "value": 2, "unit": "nM"}, {"measurement": "EC50", "setting": "TNFα; [2]", "value": 54, "unit": "nM"}]}, {"smiles": "[2H][C@](Nc1cc(Cl)c2ncc(C#N)c(NCC(C)(C)C)c2c1)(c1ccc(F)nc1)c1cn(CC(=O)NS(C)(=O)=O)nn1", "note": "[Example 425, (S)-2-(4-(((8-chloro-3-cyano-4-(neopentylamino)quinolin-6-yl)amino)(6-fluoropyridin-3-yl)methyl-d)-1H-1,2,3-triazol-1-yl)-N-(methyl-sulfonyl)acetamide]", "values": [{"measurement": "IC50", "setting": "Human Cot; [1]", "value": 7, "unit": "nM"}, {"measurement": "EC50", "setting": "TNFα; [2]", "value": 1000, "unit": "nM"}]}, {"smiles": "COc1cc(N[C@H](c2cn(C3(C#N)CC3)nn2)c2ccc(F)nc2C)cc2c(NCC(C)(C)C)c(C#N)cnc12", "note": "[Example 596, (S)-6-(((1-(1-cyanocyclopropyl)-1H-1,2,3-triazol-4-yl)(6-fluoro-2-methylpyridin-3-yl)methyl)amino)-8-methoxy-4-(neopentylamino)quinoline-3-carbonitrile]", "values": [{"measurement": "IC50", "setting": "Human Cot; [1]", "value": 79, "unit": "nM"}, {"measurement": "EC50", "setting": "TNFα; [2]", "value": 826, "unit": "nM"}]}, {"smiles": "CC(C)(C)CNc1c(C#N)cnc2c(Cl)cc(N[C@@H](c3cccnc3)c3cn(C4(C(F)F)CC4)nn3)cc12", "note": "[Example 506, (S)-8-chloro-6-(((1-(1-(difluoromethyl)-cyclopropyl)-1H-1,2,3-triazol-4-yl)(pyridin-3-yl)methyl)amino)-4-(neopentylamino)quinoline-3-carbonitrile]", "values": [{"measurement": "IC50", "setting": "Human Cot; [1]", "value": 8, "unit": "nM"}, {"measurement": "EC50", "setting": "TNFα; [2]", "value": 528, "unit": "nM"}]}, {"smiles": "Cc1nnc(C2(n3cc([C@@H](Nc4cc(Cl)c5ncc(C#N)c(NCC(C)(C)C)c5c4)c4ccc(F)nc4C)nn3)CC2)o1", "note": "[Example 806, (S)-8-chloro-6-(((6-fluoro-2-methylpyridin-3-yl)(1-(1-(5-methyl-1,3,4-oxadiazol-2-yl)cyclopropyl)-1H-1,2,3-triazol-4-yl)methyl)amino)-4-(neopentylamino)quinoline-3-carbonitrile]", "values": [{"measurement": "IC50", "setting": "Human Cot; [3]", "value": 3, "unit": "nM"}, {"measurement": "EC50", "setting": "TNFα; [4]", "value": 28, "unit": "nM"}]}, {"smiles": "CCC1(n2cc([C@@H](Nc3cc(Cl)c4ncc(C#N)c(NCC(C)(C)C)c4c3)c3ccc(F)nc3C)nn2)CC1", "note": "[Example 754, (S)-8-chloro-6-(((1-(1-ethylcyclopropyl)-1H-1,2,3-triazol-4-yl)(6-fluoro-2-methylpyridin-3-yl)methyl)amino)-4-(neopentylamino)quinoline-3-carbonitrile]", "values": [{"measurement": "IC50", "setting": "Human Cot; [1]", "value": 3, "unit": "nM"}, {"measurement": "EC50", "setting": "TNFα; [2]", "value": 31, "unit": "nM"}]}, {"smiles": "CC(C)(C)n1cc([C@@H](Nc2cc(Cl)c3ncc(C#N)c(Nc4cnc(F)c(F)c4)c3c2)c2cccnc2)nn1", "note": "[Example 198, (S)-6-(((1-(tert-butyl)-1H-1,2,3-triazol-4-yl)(pyridin-3-yl)methyl)amino)-8-chloro-4-((5,6-difluoropyridin-3-yl)amino)quinoline-3-carbonitrile]", "values": [{"measurement": "IC50", "setting": "Human Cot; [1]", "value": 17, "unit": "nM"}, {"measurement": "EC50", "setting": "TNFα; [2]", "value": 982, "unit": "nM"}]}, {"smiles": "Cc1nc(F)ccc1[C@H](Nc1cc(F)c2ncc(C#N)c(NCC(C)(C)C)c2c1)c1cn(C2(C(N)=O)CC2)nn1", "note": "[Example 486, (S)-1-(4-(((3-cyano-8-fluoro-4-(neopentyl-amino)quinolin-6-yl)amino)(6-fluoro-2-methylpyridin-3-yl)methyl)-1H-1,2,3-triazol-1-yl)cyclopropane-1-carboxamide]", "values": [{"measurement": "IC50", "setting": "Human Cot; [1]", "value": 3, "unit": "nM"}, {"measurement": "EC50", "setting": "TNFα; [2]", "value": 991, "unit": "nM"}]}, {"smiles": "CC(C)(C)CNc1c(C#N)cnc2c(Cl)cc(N[C@H](c3cn(C4(C(F)F)CC4)nn3)c3cccc4cnccc34)cc12", "note": "[Example 536, (S)-8-chloro-6-(((1-(1-(difluoromethyl)-cyclopropyl)-1H-1,2,3-triazol-4-yl)(isoquinolin-5-yl)methyl)amino)-4-(neopentylamino)quinoline-3-carbonitrile]", "values": [{"measurement": "IC50", "setting": "Human Cot; [1]", "value": 3, "unit": "nM"}, {"measurement": "EC50", "setting": "TNFα; [2]", "value": 51, "unit": "nM"}]}, {"smiles": "CC(C)(C)CNc1c(C#N)cnc2c(Cl)cc(N[C@H](c3cn(C4(C(F)(F)F)CC4)nn3)c3cncc4ccccc34)cc12", "note": "[Example 628, (S)-8-chloro-6-((isoquinolin-4-yl(1-(1-(trifluoromethyl)cyclopropyl)-1H-1,2,3-triazol-4-yl)methyl)amino)-4-(neopentylamino)quinoline-3-carbonitrile]", "values": [{"measurement": "IC50", "setting": "Human Cot; [1]", "value": 450, "unit": "nM"}, {"measurement": "EC50", "setting": "TNFα; [2]", "value": 1000, "unit": "nM"}]}, {"smiles": "CC(C)(C)CNc1c(C#N)cnc2c(C#N)cc(N[C@H](c3cn(C4(C5CC5)CC4)nn3)c3cccc4cnccc34)cc12", "note": "[Example 703, (S)-6-(((1-([1,1′-bi(cyclopropan)]-1-yl)-1H-1,2,3-triazol-4-yl)(isoquinolin-5-yl)methyl)amino)-4-(neopentylamino)quinoline-3,8-dicarbonitrile]", "values": [{"measurement": "IC50", "setting": "Human Cot; [1]", "value": 2, "unit": "nM"}, {"measurement": "EC50", "setting": "TNFα; [2]", "value": 22, "unit": "nM"}]}, {"smiles": "Cn1ccc2c([C@H](Nc3cc(Cl)c4ncc(C#N)c(NCC(C)(C)C)c4c3)c3cn(C45CCC(CC4)CC5)nn3)cccc2c1=O", "note": "[Example 939, (S)-6-(((1-(bicyclo[2.2.2]octan-1-yl)-1H-1,2,3-triazol-4-yl)(2-methyl-1-oxo-1,2-dihydroisoquinolin-5-yl)methyl)amino)-8-chloro-4-(neopentylamino)quinoline-3-carbonitrile]", "values": [{"measurement": "IC50", "setting": "Human Cot; [3]", "value": 18, "unit": "nM"}, {"measurement": "EC50", "setting": "TNFα; [4]", "value": 104, "unit": "nM"}]}, {"smiles": "CC(C)(C)CNc1c(C#N)cnc2c(Cl)cc(N[C@H](c3cn(C4(C5CC5)CC4)nn3)c3cccc4cnccc34)cc12", "note": "[Example 682, (S)-6-(((4-(1-(1-bi(cyclopropan)]-1-yl)-1H-1,2,3-triazol-4-yl)(isoquinolin-5-yl)methyl)amino)-8-chloro-4-(neopentylamino)quinoline-3-carbonitrile]", "values": [{"measurement": "IC50", "setting": "Human Cot; read-out: IC50 HTRF, Cot HTRF (TR-FRET) biochemical assay", "value": 7, "unit": "nM"}, {"measurement": "EC50", "setting": "TNFα; read-out: EC50 TNF, LPS-stimulated human monocytes, TNFα", "value": 66, "unit": "nM"}]}, {"smiles": "N#Cc1cnc2c(Cl)cc(N[C@@H](c3cccnc3)c3cn(-c4ccccc4)nn3)cc2c1Nc1cnc(F)c(F)c1", "note": "[Example 160, (S)-8-chloro-4-((5,6-difluoropyridin-3-yl)amino)-6-(((1-phenyl-1H-1,2,3-triazol-4-yl)(pyridin-3-yl)methyl)amino)quinoline-3-carbonitrile]", "values": [{"measurement": "IC50", "setting": "Human Cot; [1]", "value": 11, "unit": "nM"}, {"measurement": "EC50", "setting": "TNFα; [2]", "value": 484, "unit": "nM"}]}, {"smiles": "Cn1ccc2c([C@H](Nc3cc(Cl)c4ncc(C#N)c(NCC(C)(C)C)c4c3)c3cn(C4(C(F)F)CC4)nn3)cccc21", "note": "[Example 736, (S)-8-chloro-6-(((1-(1-(difluoromethyl)cyclopropyl)-1H-1,2,3-triazol-4-yl)(1-methyl-1H-indol-4-yl)methyl)amino)-4-(neopentylamino)quinoline-3-carbonitrile]", "values": [{"measurement": "IC50", "setting": "Human Cot; [1]", "value": 117, "unit": "nM"}, {"measurement": "EC50", "setting": "TNFα; [2]", "value": 645, "unit": "nM"}]}]}
